Reference: US9242966B2, “Phthalazines as potassium ion channel inhibitors” (BRISTOL-MYERS SQUIBB COMPANY, priority 2013, dated 2016)

Target: T1, human KV 1.5 (Homo sapiens, UniProt P22460)
T1 construct: expressed in transfected cells; host or cells: mammalian L-929 cells (mouse fibroblast line)
Assay: Block of IKur current in patch clamped L-929 cells expressing human Kv1.5
Format: cell-based
Conditions: patch clamped mammalian L-929 cells stably expressing human Kv1.5 (IKur); for inhibition at 0.3 µM: L929, 0.3 μM, read-out: KV1_5% Inh L929 @0.3 μM
Description: 1. Synders, D. J.; et al., “A rapidly activating and slowly inactivating potassium channel cloned from human heart: functional analysis after stable mammalian cell culture expression”, J. Gen. Physiol., 101:513-543 (1993). […]

T1 sequence (P22460 whole entry): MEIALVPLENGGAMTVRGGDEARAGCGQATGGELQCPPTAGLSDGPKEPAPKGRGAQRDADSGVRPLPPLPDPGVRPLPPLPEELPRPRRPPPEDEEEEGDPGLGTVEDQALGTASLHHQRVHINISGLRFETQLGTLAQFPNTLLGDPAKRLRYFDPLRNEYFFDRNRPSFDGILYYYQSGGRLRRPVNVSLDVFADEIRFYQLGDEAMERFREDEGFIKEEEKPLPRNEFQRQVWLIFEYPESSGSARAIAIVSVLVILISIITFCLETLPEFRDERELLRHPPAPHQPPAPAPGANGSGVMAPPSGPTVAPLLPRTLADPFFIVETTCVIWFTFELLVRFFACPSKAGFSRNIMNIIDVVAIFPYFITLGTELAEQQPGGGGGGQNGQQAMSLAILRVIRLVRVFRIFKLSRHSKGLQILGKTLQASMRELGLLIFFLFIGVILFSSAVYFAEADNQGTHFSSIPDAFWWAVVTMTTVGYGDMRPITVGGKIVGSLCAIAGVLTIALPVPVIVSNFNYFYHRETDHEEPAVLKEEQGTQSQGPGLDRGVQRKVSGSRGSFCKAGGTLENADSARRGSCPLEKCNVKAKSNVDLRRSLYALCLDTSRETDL

SMILES	inhibition at 0.3 µM	KV1_5% Inh L929 @0.3 μM (0.3 μM)
CC(=O)Nc1cncc(-c2nnc(NCc3ccccc3)c3c(-c4ccccc4)cccc23)c1 [Example 2, N-(5-(4-(Benzylamino)-5-phenylphthalazin-1-yl)pyridin-3-yl)acetamide]	83.9%	
CS(=O)(=O)Nc1cncc(-c2nnc(NCc3ccccc3)c3c(-c4ccccc4)cccc23)c1 [Example 3, N-(5-(4-(Benzylamino)-5-phenylphthalazin-1-yl)pyridin-3-yl)methanesulfonamide]	77.3%	
CC(C)OC(=O)Nc1cncc(-c2nnc(NCc3ccccc3)c3c(-c4ccccc4)cccc23)c1 [Example 4]	95.4%	
NC(=O)c1cncc(-c2nnc(NCc3ccccn3)c3c(-c4ccccc4)cccc23)c1 [Example 5, 5-(5-Phenyl-4-(pyridin-2-ylmethylamino)phthalazin-1-yl)nicotinamide]	76%	
NS(=O)(=O)c1cncc(-c2nnc(NCc3ccccc3)c3c(-c4ccccc4)cccc23)c1 [Example 8, 5-(4-(Benzylamino)-5-phenylphthalazin-1-yl)pyridine-3-sulfonamide]	90.5%	
Nc1cncc(-c2nnc(NCc3ccccn3)c3c(-c4ccccc4)cccc23)c1 [Example 9, 4-(5-Aminopyridin-3-yl)-8-phenyl-N-(pyridin-2-ylmethyl) phthalazin-1-amine]	87.1%	
NC(=O)Nc1cncc(-c2nnc(NCc3ccccc3)c3c(-c4ccccc4)cccc23)c1 [Example 10, 1-(5-(4-(Benzylamino)-5-phenylphthalazin-1-yl)pyridin-3-yl)urea]	51.1%	
CC(=O)Nc1cncc(-c2nnc(NCc3ccccn3)c3c(-c4ccccc4)cccc23)c1 [Example 11, N-(5-(5-Phenyl-4-(pyridin-2-ylmethylamino)phthalazin-1-yl)pyridin-3-yl)acetamide]	78.8%	
CC(C)OC(=O)Nc1cncc(-c2nnc(NCc3ccccn3)c3c(-c4ccccc4)cccc23)c1 [Example 12, Isopropyl 5-(5-phenyl-4-(pyridin-2-ylmethylamino)phthalazin-1-yl)pyridin-3-ylcarbamate]	91.6%	
CC(C)(C)Oc1cc(-c2nnc(NCc3ccccc3)c3c(-c4ccccc4)cccc23)ccn1 [Example 13, N-Benzyl-4-(2-tert-butoxypyridin-4-yl)-8-phenylphthalazin-1-amine]	43%	
CS(=O)(=O)Nc1cccc(NC(=O)c2cncc(-c3nnc(NCc4ccccn4)c4c(-c5ccccc5)cccc34)c2)c1 [Example 14, N-(3-(Methylsulfonamido)phenyl)-5-(5-phenyl-4-(pyridin-2-ylmethylamino)phthalazin-1-yl)nicotinamide]	71%	
CC(=O)Nc1ccc(-c2nnc(NCc3ccccc3)c3c(-c4ccccc4)cccc23)cn1 [Example 21, N-(5-(4-(Benzyl-amino)-5-phenylphthalazin-1-yl)pyridin-2-yl)acetamide]	97.9%	
CCOC(=O)c1cncc(-c2nnc(NCc3ccccc3)c3c(-c4ccccc4)cccc23)c1 [Example 24, Ethyl 5-(4-(benzyl-amino)-5-phenylphthalazin-1-yl) nicotinate]	96.5%	
COc1ncc(-c2nnc(NCc3ccccc3)c3c(-c4ccccc4)cccc23)cn1 [Example 26, N-Benzyl-4-(2-methoxy-pyrimidin-5-yl)-8-phenylphthalazin-1-amine]	93.1%	
CC(C)CC(=O)Nc1cncc(-c2nnc(NCc3ccccn3)c3c(-c4ccccc4)cccc23)c1 [Example 30, 3-Methyl-N-(5-(5-phenyl-4-((pyridin-2-ylmethyl)amino)phthalazin-1-yl)pyridin-3-yl)butanamide]	92.5%	
CC(Nc1nnc(-c2cncc(S(N)(=O)=O)c2)c2cccc(-c3ccccc3)c12)c1ccccn1 (centres unmarked) [Example 33, 5-(5-Phenyl-4-((1-(pyridin-2-yl)ethyl)amino)phthalazin-1-yl)pyridine-3-sulfonamide]	71.1%	
CC(Nc1nnc(-c2cncc(S(N)(=O)=O)c2)c2cccc(-c3ccccc3)c12)c1ccccn1 (centres unmarked) [Example 34, 5-(5-Phenyl-4-((1-(pyridin-2-yl)ethyl)amino)phthalazin-1-yl)pyridine-3-sulfonamide]		84%
NS(=O)(=O)c1cncc(-c2nnc(NCc3ncccc3F)c3c(-c4ccccc4)cccc23)c1 [Example 37, 5-(4-((3-Fluoropyridin-2-yl)methylamino)-5-phenylphthalazin-1-yl)pyridine-3-sulfonamide]	78.6%	
NS(=O)(=O)c1cncc(-c2nnc(NCc3cc(Cl)cc(Cl)c3)c3c(-c4ccccc4)cccc23)c1 [Example 39, 5-(4-((3,5-Dichlorobenzyl)amino)-5-phenylphthalazin-1-yl)pyridine-3-sulfonamide]	78.4%	
NS(=O)(=O)c1cncc(-c2nnc(NCc3cccc(OC(F)(F)F)c3)c3c(-c4ccccc4)cccc23)c1 [Example 40, 5-(5-Phenyl-4-((3-(trifluoromethoxy)benzyl)amino)phthalazin-1-yl)pyridine-3-sulfonamide]	90.2%	

The next lines start with the values.

inhibition at 0.3 µM	KV1_5% Inh L929 @0.3 μM (0.3 μM)	SMILES
16%		OCC(O)c1cncc(-c2nnc(NCc3ccccn3)c3c(-c4ccccc4)cccc23)c1 (racemic) [Example 7, 1-(5-(5-Phenyl-4-(pyridin-2-ylmethylamino)phthalazin-1-yl)pyridin-3-yl)ethane-1,2-diol]
79.5%		NS(=O)(=O)c1cncc(-c2nnc(NCc3ccccn3)c3c(-c4ccccc4)cccc23)c1 [Example 1, 5-(5-Phenyl-4-(pyridin-2-ylmethylamino)phthalazin-1-yl)pyridine-3-sulfonamide]
38.3%		O=C(NCC(O)CO)c1cncc(-c2nnc(NCc3ccccn3)c3c(-c4ccccc4)cccc23)c1 (centres unmarked) [Example 6, N-(2,3-Dihydroxypropyl)-5-(5-phenyl-4-(pyridin-2-ylmethylamino)phthalazin-1-yl)nicotinamide]
72.5%		COc1ccccc1CNc1nnc(-c2cncc(S(N)(=O)=O)c2)c2cccc(-c3ccccc3)c12 [Example 19, 5-(4-((2-Methoxy-benzyl)amino)-5-phenylphthalazin-1-yl)pyridine-3-sulfonamide]
92.8%		Nc1ccc(-c2nnc(NCc3ccccc3)c3c(-c4ccccc4)cccc23)cn1 [Example 20, 4-(6-Aminopyridin-3-yl)-N-benzyl-8-phenylphthalazin-1-amine]
91.5%		CC(C)CC(=O)Nc1cncc(-c2nnc(NCc3ccccc3)c3c(-c4ccccc4)cccc23)c1 [Example 22, N-(5-(4-(Benzyl-amino)-5-phenylphthalazin-1-yl)pyridin-3-yl)-3-methylbutanamide]
83.5%		NC(=O)c1cncc(-c2nnc(NCc3ccccc3)c3c(-c4ccccc4)cccc23)c1 [Example 23, 5-(4-(Benzyl-amino)-5-phenylphthalazin-1-yl)nicotinamide]
80.2%		Oc1cc(-c2nnc(NCc3ccccc3)c3c(-c4ccccc4)cccc23)ccn1 [Example 25, 4-(4-(Benzyl-amino)-5-phenylphthalazin-1-yl)pyridin-2-ol]
78%		O=C(Nc1cncc(-c2nnc(NCc3ccccc3)c3c(-c4ccccc4)cccc23)c1)OCC(F)(F)F [Example 27, 2,2,2-Trifluoroethyl (5-(4-(benzylamino)-5-phenylphthalazin-1-yl)pyridin-3-yl)carbamate]
41.5%		NS(=O)(=O)c1cncc(-c2nnc(NCc3ccccc3)c3c(-c4ccc(F)cc4)cccc23)c1 [Example 28, 5-(4-(Benzylamino)-5-(4-fluorophenyl)phthalazin-1-yl)pyridine-3-sulfonamide]
68.1%		NS(=O)(=O)c1cncc(-c2nnc(NCc3ncccn3)c3c(-c4ccccc4)cccc23)c1 [Example 29, 5-(5-Phenyl-4-((pyrimidin-2-ylmethyl)amino)phthalazin-1-yl)pyridine-3-sulfonamide]
87.4%		NS(=O)(=O)c1cncc(-c2nnc(NCc3ccccc3F)c3c(-c4ccccc4)cccc23)c1 [Example 31, 5-(4-((2-Fluorobenzyl)amino)-5-phenylphthalazin-1-yl)pyridine-3-sulfonamide]
53.2%		NS(=O)(=O)c1cncc(-c2nnc(NCc3cccc(F)c3)c3c(-c4ccccc4)cccc23)c1 [Example 32, 5-(4-((3-Fluorobenzyl)amino)-5-phenylphthalazin-1-yl)pyridine-3-sulfonamide]
86.3%		CC(C)(Nc1nnc(-c2cncc(S(N)(=O)=O)c2)c2cccc(-c3ccccc3)c12)c1ccccn1 [Example 35, 5-(5-Phenyl-4-((2-(pyridin-2-yl)propan-2-yl)amino)phthalazin-1-yl)pyridine-3-sulfonamide]
91.1%		NS(=O)(=O)c1cncc(-c2nnc(NCc3c(F)cccc3F)c3c(-c4ccccc4)cccc23)c1 [Example 36, 5-(4-((2,6-Difluorobenzyl)amino)-5-phenylphthalazin-1-yl)pyridine-3-sulfonamide]
94.9%		NS(=O)(=O)c1cncc(-c2nnc(NCc3cccc(C(F)(F)F)c3)c3c(-c4ccccc4)cccc23)c1 [Example 38, 5-(5-Phenyl-4-((3-(trifluoromethyl)benzyl)amino)phthalazin-1-yl) pyridine-3-sulfonamide]
93.5%		NS(=O)(=O)c1cncc(-c2nnc(NC[C@H](O)c3ccccc3)c3c(-c4ccccc4)cccc23)c1 [Example 41, (R)-5-(4-((2-Hydroxy-2-phenylethyl)amino)-5-phenylphthalazin-1-yl)pyridine-3-sulfonamide]
91.2%		C[C@@H](Nc1nnc(-c2cncc(S(N)(=O)=O)c2)c2cccc(-c3ccccc3)c12)c1ccccc1 [Example 42, (R)-5-(5-Phenyl-4-((1-phenylethyl)amino)phthalazin-1-yl)pyridine-3-sulfonamide]
